Earlier results as cited in patent US6759063B2, “Methods and compositions for reducing sympathomimetic-induced side effects” (priority 1999, dated 2004).

Key:
[1] = system: cloned human alpha1A- and alpha1B-adrenoceptors; conditions: phenylephrine-stimulated; cloned receptors
[2] = system: human alpha1-adrenoceptors; conditions: up to the highest concentration that could be tested
[3] = rodents and humans
[4] = separate studies
[5] = 150 mg/day; obese outpatients

CC[C@H](CC[C@@H](C)[C@H]1CC[C@H]2[C@@H]3CC=C4C[C@@H](O)CC[C@]4(C)[C@H]3CC[C@]12C)C(C)C [beta-sitosterol]
inhibition of agonist-induced [3H]inositol phosphate formation [1]: without consistent inhibitory effect
inhibition of radioligand binding to human alpha1-adrenoceptors [2]: without consistent inhibitory effect

Cn1c(=O)c2c(ncn2C)n(C)c1=O [caffeine]
thermogenic and anti-obesity properties [3]: no effect

CCN[C@@H](C)Cc1cccc(C(F)(F)F)c1 [dexfenfluramine]
weight loss in obese patients [4]: promote weight loss

CN[C@@H](C)[C@H](O)c1ccccc1 [ephedrine]
adverse side effects versus placebo group [5]: significantly greater adverse side effects
thermogenic and anti-obesity properties [3]: potent thermogenic and anti-obesity properties
